In US9091700B2, “Modified peptide substrate” (McMaster University, priority 2005, dated 2015):

What was measured:
Assay type in all cases: biochemical
[1] = target: T1, A2M (Homo sapiens, UniProt P01023); experiment: Reaction of soluble S2238 in 96-well plate, change in absorbance at 405 nm over 100 seconds; conditions: absorbance 405 nm over 100 seconds
T1 construct: purchased Sigma
T1 sequence (P01023 24-1474): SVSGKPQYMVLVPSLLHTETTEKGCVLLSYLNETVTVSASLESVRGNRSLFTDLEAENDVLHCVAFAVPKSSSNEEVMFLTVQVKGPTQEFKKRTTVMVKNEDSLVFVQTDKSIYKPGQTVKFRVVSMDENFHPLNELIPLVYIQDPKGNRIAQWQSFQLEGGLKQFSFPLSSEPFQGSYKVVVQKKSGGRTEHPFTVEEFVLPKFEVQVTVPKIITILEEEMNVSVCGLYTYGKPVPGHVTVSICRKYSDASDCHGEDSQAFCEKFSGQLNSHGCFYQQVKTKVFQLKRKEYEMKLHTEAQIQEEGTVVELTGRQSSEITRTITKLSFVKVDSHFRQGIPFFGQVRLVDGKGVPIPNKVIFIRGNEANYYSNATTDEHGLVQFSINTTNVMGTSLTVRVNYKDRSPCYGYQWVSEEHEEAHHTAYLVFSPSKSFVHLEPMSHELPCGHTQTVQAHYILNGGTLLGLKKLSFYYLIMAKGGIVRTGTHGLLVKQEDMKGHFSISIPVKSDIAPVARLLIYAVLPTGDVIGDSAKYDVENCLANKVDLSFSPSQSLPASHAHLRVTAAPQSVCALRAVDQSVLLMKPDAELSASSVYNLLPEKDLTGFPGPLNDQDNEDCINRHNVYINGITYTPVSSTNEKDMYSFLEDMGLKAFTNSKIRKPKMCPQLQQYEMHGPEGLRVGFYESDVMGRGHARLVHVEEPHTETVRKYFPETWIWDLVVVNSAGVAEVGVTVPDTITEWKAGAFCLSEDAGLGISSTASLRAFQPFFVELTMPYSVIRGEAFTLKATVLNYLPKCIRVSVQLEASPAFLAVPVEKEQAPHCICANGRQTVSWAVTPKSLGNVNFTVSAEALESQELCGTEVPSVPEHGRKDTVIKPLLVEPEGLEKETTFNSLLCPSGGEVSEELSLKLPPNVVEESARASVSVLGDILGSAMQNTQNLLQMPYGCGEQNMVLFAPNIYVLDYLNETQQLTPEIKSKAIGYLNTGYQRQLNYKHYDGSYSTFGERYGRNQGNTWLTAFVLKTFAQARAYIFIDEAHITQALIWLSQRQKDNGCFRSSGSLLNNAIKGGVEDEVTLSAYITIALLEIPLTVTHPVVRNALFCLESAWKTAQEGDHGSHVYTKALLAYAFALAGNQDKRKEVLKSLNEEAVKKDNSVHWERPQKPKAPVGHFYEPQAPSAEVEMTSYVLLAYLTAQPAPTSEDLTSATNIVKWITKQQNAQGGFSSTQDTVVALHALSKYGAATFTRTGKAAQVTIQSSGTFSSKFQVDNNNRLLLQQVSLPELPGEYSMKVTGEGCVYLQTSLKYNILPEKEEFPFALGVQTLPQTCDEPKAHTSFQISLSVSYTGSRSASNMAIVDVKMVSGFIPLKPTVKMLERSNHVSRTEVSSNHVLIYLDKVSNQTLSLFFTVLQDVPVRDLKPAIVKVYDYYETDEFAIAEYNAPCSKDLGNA
Procedure: (§1) A solution of 0.05M HEPES 0.15M NaCl pH 7.5 (HBS) was prepared. Thrombin-A2M was prepared by reaction of 40 μL of 5 mg A2M (Sigma)/mL+40 μL of 0.2 mg thrombin (Enzyme Research Laboratories, South Bend, 1N, USA)/mL HBS for 40 to 60 minutes at 23° C. (solution #1). Solutions of 40 μL of 5 mg A2M/mL+40 μL HBS (solution #2) and 40 μL of 0.2 mg thrombin/mL+40 μL HBS (solution #3) were prepared.
(§2) The following reactions with S2238 were carried out in 96-well plate wells. • 1. 5 μL of solution #1 were added to 10 uL of 0.5 mg antithrombin (purified antithrombin III protein, Affinity Biologicals, Ancaster, Ontario, Canada)/mL HBS+1 μL of 100 U heparin (Leo Laboratories, Ajax, Ontario, Canada)/mL HBS+74 μL HBS. After 10 minutes, 10 μL of 3.192 mg S2238/mL H2O was added with mixing, absorbance readings at 405 nm measured every 10 seconds for 100 seconds and the change in absorbance over that time recorded (AA). • 2. 5 μL of solution #2 were added to 10 uL of 0.5 mg antithrombin/mL HBS+1 μL of 100 U heparin/mL HBS+74 μL HBS. After 10 minutes, 10 μL of 3.192 mg S2238/mL H2O was added with mixing, absorbance readings at 405 nm measured every 10 seconds for 100 seconds and the change in absorbance over that time recorded (AA). • 3. 5 μL of solution #3 were added to 10 uL of 0.5 mg antithrombin/mL HBS+1 μL of 100 U heparin/mL HBS+74 μL HBS. After 10 minutes, 10 μL of 3.192 mg S2238/mL H2O was added with mixing, absorbance readings at 405 nm measured every 10 seconds for 100 seconds and the change in absorbance over that time recorded (AA). • 4. 5 μL of solution #1 were added to 85 uL of HBS. After 10 minutes, 10 μL of 3.192 mg S2238/mL H2O was added with mixing, absorbance readings at 405 nm measured every 10 seconds for 100 seconds and the change in absorbance over that time recorded (AA). • 5. 5 μL of solution #2 were added to 85 uL of HBS. After 10 minutes, 10 μL of 3.192 mg S2238/mL H2O was added with mixing, absorbance readings at 405 nm measured every 10 seconds for 100 seconds and the change in absorbance over that time recorded (AA). • 6. 5 μL of solution #3 were added to 85 uL of HBS. After 10 minutes, 10 μL of 3.192 mg S2238/mL H2O was added with mixing, absorbance readings at 405 nm measured every 10 seconds for 100 seconds and the change in absorbance over that time recorded (LA).

[2] = target: T2, thrombin (Homo sapiens, UniProt P00734); experiment: as above; conditions: for ΔA: absorbance 405 nm over 100 seconds
T2 construct: 0.2 mg thrombin (Enzyme Research Laboratories, South Bend, 1N, USA)/mL HBS; purchased Enzyme Research Laboratories
Procedure: as §1, §2

[3] = target: T3, thrombin-A2M (Homo sapiens, UniProt P00734); experiment: as above; conditions: for ΔA: absorbance 405 nm over 100 seconds
T3 construct: 0.2 mg thrombin (Enzyme Research Laboratories, South Bend, 1N, USA)/mL HBS; purchased Enzyme Research Laboratories (thrombin); Sigma (A2M)
Procedure: as §1, §2

[4] = target: T2, thrombin; experiment: Further comparison of reactivities (Example 3), change in absorbance; conditions: reactant Thrombin
Procedure: (§3) Thrombin and thrombin-A2M were added to samples of S2238 and S2238-Agarose.

[5] = target: T3, thrombin-A2M; experiment: as above; conditions: reactant thrombin-A2M
Procedure: as §3

[6] = target: T4, human alpha thrombin (Homo sapiens, UniProt P00734); experiment: Reaction of thrombin with S2238 SEPHAROSE beads or free S2238, absorbance at 405 nm of supernatant; conditions: + thrombin + TSP buffer; 100 nM thrombin, 23° C.
T4 construct: 100 nM human alpha thrombin (Enzyme Research Laboratories); purchased Enzyme Research Laboratories
Procedure: 0.5 mL of resuspended S2238 SEPHAROSE™ beads was placed in each of 2 microfuge tubes (1.5 mL capacity), followed by centrifugation at 12000 g for 1 minute and removal of the resultant supernatant. Beads in each tube were resuspended in 0.5 mL of 0.02 M Tris-HCl 0.15 M NaCl 0.6% polyethylene glycol 8000 pH 7.4 (TSP), centrifuged for 1 minute and the resultant supernatant discarded. A solution of 100 nM human alpha thrombin (Enzyme Research Laboratories) in TSP was prepared. 0.5 mL of thrombin was added to one tube of packed S2238 SEPHAROSE™ beads (tube 1) and 0.5 mL of TSP was added to the other tube of S2238-SEPHAROSE™ beads (tube 2). In a separate empty tube, 0.05 mL of free (not conjugated to beads) S2238 stock solution (12.5 mg of S2238/mL of H2O)+0.15 mL of TSP+0.5 mL of 100 nM thrombin were added (tube 3). Finally, in a separate empty tube, 0.05 mL of free S2238 stock solution+0.65 mL of TSP were added (tube 4). All of the tubes were capped and tubes+contents were gently shaken by inversion manually for 10 min at 23° C. Following inversion mixing, tubes were centrifuged at 12000 g for 1 min and 0.2 mL of supernatant fluid from each tube quickly removed to separate wells of a 96-well microtitre plate and the absorbance at 405 nm measured.

[7] = system: Total Thrombin (Free Thrombin+Thrombin-A2M); experiment: Plasma thrombin generation, subsamples detected with free S2238 or S2238-Agarose; conditions: for Thrombin activity detected (absorbance at 405 nm), in words: plasma samples with free thrombin+thrombin-A2M, FIG. 5
Procedure: Plasma is taken and the fibrinogen removed by reaction with ancrod enzyme to form a fibrin clot that is wound out to give the resultant defibrinated plasma. At time zero, tissue factor (Thromborel S)+CaCl2 are added to start thrombin generation in the pre-warmed defibrinated plasma. At certain time points, subsamples from the reaction mixture are taken into Na2EDTA to stop further thrombin generation by chelating the Ca^2+. Thrombin activity in the time sample (containing both free thrombin and thrombin bound to alpha-2-macroglobulin (A2M)) was then detected by mixing with either free S2238 substrate in buffer or sterically hindered S2238 substrate (S2238-Agarose beads) suspended in buffer. In order to determine the ability of free S2238 or S2238-Agarose to detect thrombin-A2M, a similar experiment to the above method was carried out, except that all free thrombin was inhibited first by mixing with antithrombin+heparin prior to incubation with substrate. […] Thus, early time point samples (i.e. 60 seconds) would contain more free thrombin than thrombin-A2M, while later time point samples (i.e. 300 seconds) would contain much more thrombin-A2M than free thrombin.
12 mm (ID)×75 mm (L) polycarbonate plastic test tubes were used for plasma thrombin generation. • 1. Defibrination of Plasma: • a. 800 μL of Plasma was incubated with 10 μL of 30 U/mL Ancrod stock at 37° C. for 10 minutes. • b. After incubation, fibrin clot that formed was wound out on a plastic rod, leaving supernatant defibrinated plasma. • c. Test tube was placed on ice for 10 minutes. • d. After 10-minute incubation, any further clots were wound out. • e. Defibrinated plasma was stored on ice. • 2. The activator solution (12.5 μL Thromborel S+4.0 μL 1M CaCl2+183.5 μL HBS) was warmed at 37° C. in a tube. In a separate tube, 150 μL of defibrinated plasma was warmed at 37° C. • 3. At t=0, 150 μL of activator solution was mixed with 150 μL of defibrinated plasma, at 37° C. • 4. […] Aliquots of […] of supernatant from each sample were placed in 96-well plate wells and the absorbance at 405 nm measured.

[8] = target: T3, thrombin-A2M; experiment: Plasma thrombin generation, free thrombin neutralized by antithrombin+heparin before substrate; conditions: plasma samples with thrombin-A2M only (free thrombin neutralized by antithrombin+heparin); FIG. 5
Procedure: Plasma is taken and the fibrinogen removed by reaction with ancrod enzyme to form a fibrin clot that is wound out to give the resultant defibrinated plasma. At time zero, tissue factor (Thromborel S)+CaCl2 are added to start thrombin generation in the pre-warmed defibrinated plasma. At certain time points, subsamples from the reaction mixture are taken into Na2EDTA to stop further thrombin generation by chelating the Ca^2+. Thrombin activity in the time sample (containing both free thrombin and thrombin bound to alpha-2-macroglobulin (A2M)) was then detected by mixing with either free S2238 substrate in buffer or sterically hindered S2238 substrate (S2238-Agarose beads) suspended in buffer. […]
12 mm (ID)×75 mm (L) polycarbonate plastic test tubes were used for plasma thrombin generation. • 1. […] Aliquots of 2004 of supernatant from each sample were placed in 96-well plate wells and the absorbance at 405 nm measured.
The experiment described above was repeated, except that at step 4, 25 μL of time sample was added to 5 μL of 50 U antithrombin/mL PBS (7.2 mg antithrombin/mL)+2 μl of 100 U heparin/mL 0.15M NaCl on ice. […] Absorbance detected at 405 nm was essentially due to substrate reaction with thrombin-A2M alone (free thrombin having been neutralized by antithrombin+heparin).

Work on H-D-Phe-Pip-Arg-pNA [S2238] yielded a ΔA ([1]; A2M + antithrombin + heparin added) of 0, a ΔA ([1]; A2M added) of 0 and a ΔA ([2]; Thrombin added) of 0.95. The “Reaction with free thrombin (in words)” value ([2]; summary of Table 1) was “reacts readily”, the ΔA ([2]; thrombin + antithrombin + heparin added) was 0 and the ΔA ([3]; Thrombin-A2M added) was 0.8. The “Reaction with thrombin-A2M (in words)” value ([3]; summary of Table 1) was “reacts readily”, the ΔA ([3]; thrombin-A2M + antithrombin + heparin added) was 0.8 and the “Thrombin Activity (Δ absorbance/minute)” value [4] was 0.57 Δ absorbance/minute. The “Thrombin Activity (Δ absorbance/minute)” value [5] was 0.48 Δ absorbance/minute, the “Absorbance at 405 nm of supernatant after 10 minutes incubation and 1 minute centrifugation” value [6] was 1.143 and the “Which thrombin species accounts for the detected activity (comparison of samples)” value ([7]; comparison of free thrombin+thrombin-A2M samples with thrombin-A2M only samples, 60 sec or 300 sec) was “the vast majority of soluble S2238 activity is due to thrombin-A2M”. For the same substance, the “Thrombin activity detected (absorbance at 405 nm), in words” value (“Thrombin activity detected” for short) ([7]; 60 seconds after plasma activation) was “significant activity”, the “Thrombin activity detected” value ([7]; 300 seconds after plasma activation) was “significant thrombin substrate activity” and the “Thrombin activity detected” value [8] was “significant thrombin activity”.
